From PMC7114135, “Interaction between the Antimalarial Drug Dispiro-Tetraoxanes and Human Serum Albumin: A Combined Study with Spectroscopic Methods and Computational Studies” (ACS Omega, 2020)

Molecular target: T1, human serum albumin (HSA) (Homo sapiens, UniProt P02768)
T1 construct: gene ALB; fatty-acid-free HSA (Sigma-Aldrich A3782)
Test: intrinsic fluorescence quenching (modified Stern-Volmer, binding constant Kb, […] K), supported by UV-vis, time-resolved fluorescence and CD
Conditions: read-out: Kb (L mol^-1) (converted)

T1 sequence (P02768 25-609): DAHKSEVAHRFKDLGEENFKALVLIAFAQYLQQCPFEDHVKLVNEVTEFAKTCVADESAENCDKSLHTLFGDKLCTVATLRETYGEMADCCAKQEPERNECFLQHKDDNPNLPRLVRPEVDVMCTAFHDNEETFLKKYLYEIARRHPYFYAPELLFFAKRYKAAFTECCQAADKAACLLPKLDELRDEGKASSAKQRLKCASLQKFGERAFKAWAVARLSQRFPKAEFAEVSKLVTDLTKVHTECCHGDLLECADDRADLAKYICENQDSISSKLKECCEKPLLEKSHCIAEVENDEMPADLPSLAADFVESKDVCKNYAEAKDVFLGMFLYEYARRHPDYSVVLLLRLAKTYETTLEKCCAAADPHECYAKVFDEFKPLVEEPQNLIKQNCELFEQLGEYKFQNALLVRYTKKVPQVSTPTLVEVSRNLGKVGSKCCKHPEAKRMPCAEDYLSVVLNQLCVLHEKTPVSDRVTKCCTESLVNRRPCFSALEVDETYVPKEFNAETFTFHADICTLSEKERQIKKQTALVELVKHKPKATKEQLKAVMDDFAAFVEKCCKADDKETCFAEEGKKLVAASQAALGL

Kd [µM]	Structure (SMILES)
16	O=S(=O)(CCCCl)CN1CCC2(CC1)OOC1(CCCC1)OO2 [TO1]
93.2	CCS(=O)(=O)CN1CCC2(CC1)OOC1(CCCCC1)OO2 [TO2]
